Data on 14 compounds can be found in US12404241B2 (Celgene Corporation, priority 2018, dated 2025).

The target in this test is T1, AR (Homo sapiens, UniProt P10275).
T1 construct: endogenous in cells; host or cells: VCaP cells
T1 sequence (P10275 1-920): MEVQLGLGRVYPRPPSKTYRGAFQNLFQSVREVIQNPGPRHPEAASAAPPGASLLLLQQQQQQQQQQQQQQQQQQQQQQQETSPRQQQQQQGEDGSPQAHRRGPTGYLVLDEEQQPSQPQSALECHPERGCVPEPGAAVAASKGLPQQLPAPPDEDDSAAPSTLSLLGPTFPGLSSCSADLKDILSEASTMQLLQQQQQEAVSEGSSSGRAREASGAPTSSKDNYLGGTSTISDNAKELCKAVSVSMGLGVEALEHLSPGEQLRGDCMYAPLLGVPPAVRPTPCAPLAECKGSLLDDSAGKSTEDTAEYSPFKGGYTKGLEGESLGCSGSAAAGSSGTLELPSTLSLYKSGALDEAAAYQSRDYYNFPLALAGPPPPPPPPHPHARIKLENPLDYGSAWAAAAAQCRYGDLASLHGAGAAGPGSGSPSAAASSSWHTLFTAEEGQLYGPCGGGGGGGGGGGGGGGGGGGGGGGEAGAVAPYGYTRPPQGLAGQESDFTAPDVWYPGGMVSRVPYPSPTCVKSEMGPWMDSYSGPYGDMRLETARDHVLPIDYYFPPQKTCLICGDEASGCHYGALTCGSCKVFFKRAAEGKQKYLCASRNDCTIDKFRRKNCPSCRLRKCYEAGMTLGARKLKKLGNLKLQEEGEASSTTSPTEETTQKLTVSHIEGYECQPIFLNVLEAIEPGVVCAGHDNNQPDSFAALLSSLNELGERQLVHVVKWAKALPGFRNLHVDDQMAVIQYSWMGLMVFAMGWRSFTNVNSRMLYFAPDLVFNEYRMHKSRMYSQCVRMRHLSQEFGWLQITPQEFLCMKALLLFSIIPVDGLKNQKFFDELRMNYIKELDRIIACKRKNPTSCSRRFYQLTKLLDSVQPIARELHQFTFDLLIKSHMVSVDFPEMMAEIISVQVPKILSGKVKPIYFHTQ
The test is described as follows: VCAP AR Degradation Assay. It counts as cell-based. The conditions noted are these: for Y (AR degradation efficiency, % of DMSO control): class symbols *; for DC50: class symbols A-C, read-out: DC50. In outline:
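24 h, 37 °C, VCaP (DMEM/8% FBS), 10-pt 1:3 dilutions from 5 μM final top, 0.1% DMSO ctrl. Lysis on ice/4 °C 1 h; total AR by sandwich ELISA, normalized to DMSO. 4PL fit → DC50, EC50, Y (min AR level).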

For the compound `CC1(C)C(=O)N(c2cnc(C#N)c(C(F)(F)F)c2)C(=S)N1c1ccc(OCCN2CCN(CC(=O)Nc3cc(Cl)cc(NC4CCC(=O)NC4=O)c3)CC2)c(CO)c1` (stereo not shown) [Example 91, N-(3-chloro-5-(2,6-dioxopiperidin-3-ylamino)phenyl)-2-(4-(2-(4-(3-(6-cyano-5-(trifluoromethyl)pyridin-3-yl)-5,5-dimethyl-4-oxo-2-thioxoimidazolidin-1-yl)-2-(hydroxymethyl)phenoxy)ethyl)piperazin-1-yl)acetamide], the “Y (AR degradation efficiency, % of DMSO control)” value is “*** (35%<Y<50%)” and the 50% degradation concentration (DC50) – broadly, the midpoint of the concentration-degradation curve – is under 100 nM.

As for `CC(O)c1cc(N2C(=S)N(c3cnc(C#N)c(C(F)(F)F)c3)C(=O)C2(C)C)ccc1OCCN1CCN(CC(=O)Nc2cc(Cl)cc(NC3CCC(=O)NC3=O)c2)CC1` (stereo not shown) [Example 92, N-(3-chloro-5-(2,6-dioxopiperidin-3-ylamino)phenyl)-2-(4-(2-(4-(3-(6-cyano-5-(trifluoromethyl)pyridin-3-yl)-5,5-dimethyl-4-oxo-2-thioxoimidazolidin-1-yl)-2-(1-hydroxyethyl)phenoxy)ethyl)piperazin-1-yl)acetamide], the “Y (AR degradation efficiency, % of DMSO control)” value was “*** (35%<Y<50%)” and the DC50 was in the range of 100 to 500 nM.

Take `CC(C)c1cc(N2C(=S)N(c3cnc(C#N)c(C(F)(F)F)c3)C(=O)C2(C)C)ccc1OCCN1CCN(CC(=O)Nc2cc(Cl)cc(NC3CCC(=O)NC3=O)c2)CC1` (stereo not shown) [Example 93, N-(3-chloro-5-(2,6-dioxopiperidin-3-ylamino)phenyl)-2-(4-(2-(4-(3-(6-cyano-5-(trifluoromethyl)pyridin-3-yl)-5,5-dimethyl-4-oxo-2-thioxoimidazolidin-1-yl)-2-isopropylphenoxy)ethyl)piperazin-1-yl)acetamide]: the “Y (AR degradation efficiency, % of DMSO control)” value was “* (0<Y<=25%)” and the half-maximal degradation concentration (DC50) was under 100 nM.

Turning to `CC(C)c1cc(N2C(=S)N(c3ccc(C#N)c(C(F)(F)F)c3)C(=O)C2(C)C)ccc1OCCN1CCN(CC(=O)Nc2cc(Cl)cc(NC3CCC(=O)NC3=O)c2)CC1` (stereo not shown) [Example 94, N-(3-chloro-5-(2,6-dioxopiperidin-3-ylamino)phenyl)-2-(4-(2-(4-(3-(4-cyano-3-(trifluoromethyl)phenyl)-5,5-dimethyl-4-oxo-2-thioxoimidazolidin-1-yl)-2-isopropylphenoxy)ethyl)piperazin-1-yl)acetamide], the “Y (AR degradation efficiency, % of DMSO control)” value is “** (25%<Y<=35%)” and the DC50 was in the range of 100 to 500 nM.

As for `CCc1cc(N2C(=S)N(c3ccc(C#N)c(C(F)(F)F)c3)C(=O)C2(C)C)ccc1OCCN1CCN(CC(=O)Nc2cccc(NC3CCC(=O)NC3=O)c2)C(C)(C)C1` (stereo not shown) [Example 95, 2-(4-(2-(4-(3-(4-cyano-3-(trifluoromethyl)phenyl)-5,5-dimethyl-4-oxo-2-thioxoimidazolidin-1-yl)-2-ethylphenoxy)ethyl)-2,2-dimethylpiperazin-1-yl)-N-(3-(2,6-dioxopiperidin-3-ylamino)phenyl)acetamide], the “Y (AR degradation efficiency, % of DMSO control)” value is “* (0<Y<=25%)” and the DC50 was under 100 nM.

With `Cc1c(N2C(=O)C(C)(C)N(c3ccc(OCCN4CCN(CC(=O)Nc5cccc(NC6CCC(=O)NC6=O)c5)CC4)c(F)c3)C2=S)ccc(C#N)c1C(F)(F)F` (stereo not shown) [Example 96, 2-(4-(2-(4-(3-(4-cyano-2-methyl-3-(trifluoromethyl)phenyl)-5,5-dimethyl-4-oxo-2-thioxoimidazolidin-1-yl)-2-fluorophenoxy)ethyl)piperazin-1-yl)-N-(3-(2,6-dioxopiperidin-3-ylamino)phenyl)acetamide], the “Y (AR degradation efficiency, % of DMSO control)” value is on record as “*** (35%<Y<50%)” and the DC50 is under 100 nM.

For `CCc1cc(N2C(=S)N(c3cnc(C#N)c(C(F)(F)F)c3)C(=O)C2(C)C)ccc1OCCN1CCN(CC(=O)Nc2cccc(NC3CCC(=O)NC3=O)c2)C(C)(C)C1` (stereo not shown) [Example 97, 2-(4-(2-(4-(3-(6-cyano-5-(trifluoromethyl)pyridin-3-yl)-5,5-dimethyl-4-oxo-2-thioxoimidazolidin-1-yl)-2-ethylphenoxy)ethyl)-2,2-dimethylpiperazin-1-yl)-N-(3-(2,6-dioxopiperidin-3-ylamino)phenyl)acetamide], the “Y (AR degradation efficiency, % of DMSO control)” value is given as “* (0<Y<=25%)” and the DC50 is under 100 nM.

With `CCc1cc(N2C(=S)N(c3ccc(C#N)c(C(F)(F)F)c3)C(=O)C2(C)C)ccc1OCCN1CCN(CC(=O)Nc2cccc(NC3CCC(=O)NC3=O)c2)C2(CC2)C1` (stereo not shown) [Example 98, 2-(7-(2-(4-(3-(4-cyano-3-(trifluoromethyl)phenyl)-5,5-dimethyl-4-oxo-2-thioxoimidazolidin-1-yl)-2-ethylphenoxy)ethyl)-4,7-diazaspiro[2.5]octan-4-yl)-N-(3-(2,6-dioxopiperidin-3-ylamino)phenyl)acetamide], the “Y (AR degradation efficiency, % of DMSO control)” value is reported as “** (25%<Y<=35%)” and the 50% degradation concentration (DC50) is under 100 nM.

For the compound `CCc1cc(N2C(=S)N(c3cnc(C#N)c(C(F)(F)F)c3)C(=O)C2(C)C)ccc1OCCN1CCN(CC(=O)Nc2cccc(NC3CCC(=O)NC3=O)c2)C2(CC2)C1` (stereo not shown) [Example 99, 2-(7-(2-(4-(3-(6-cyano-5-(trifluoromethyl)pyridin-3-yl)-5,5-dimethyl-4-oxo-2-thioxoimidazolidin-1-yl)-2-ethylphenoxy)ethyl)-4,7-diazaspiro[2.5]octan-4-yl)-N-(3-(2,6-dioxopiperidin-3-ylamino)phenyl)acetamide], the “Y (AR degradation efficiency, % of DMSO control)” value is on record as “* (0<Y<=25%)” and the DC50 is under 100 nM.

Consider `CCc1cc(N2C(=S)N(c3cnc(C#N)c(C(F)(F)F)c3)C(=O)C2(C)C)ccc1OCCN1CCN(CC(=O)Nc2cc(NC3CCC(=O)NC3=O)cc(F)c2F)[C@H](C)C1` (stereo partly drawn) [Example 100, 2-((R)-4-(2-(4-(3-(6-cyano-5-(trifluoromethyl)pyridin-3-yl)-5,5-dimethyl-4-oxo-2-thioxoimidazolidin-1-yl)-2-ethylphenoxy)ethyl)-2-methylpiperazin-1-yl)-N-(5-(2,6-dioxopiperidin-3-ylamino)-2,3-difluorophenyl)acetamide], for which the “Y (AR degradation efficiency, % of DMSO control)” value is “* (0<Y<=25%)” and the half-maximal degradation concentration (DC50) is under 100 nM.

Regarding `CCc1cc(N2C(=S)N(c3ccc(C#N)c(C(F)(F)F)c3)C(=O)C2(C)C)ccc1OCCN1CCN(CC(=O)Nc2cc(Cl)cc(NC3CCC(=O)NC3=O)c2)C2(CC2)C1` (stereo not shown) [Example 101, N-(3-chloro-5-(2,6-dioxopiperidin-3-ylamino)phenyl)-2-(7-(2-(4-(3-(4-cyano-3-(trifluoromethyl)phenyl)-5,5-dimethyl-4-oxo-2-thioxoimidazolidin-1-yl)-2-ethylphenoxy)ethyl)-4,7-diazaspiro[2.5]octan-4-yl)acetamide], the “Y (AR degradation efficiency, % of DMSO control)” value is reported as “* (0<Y<=25%)” and the DC50 was under 100 nM.

As for `CCc1cc(N2C(=S)N(c3cnc(C#N)c(C(F)(F)F)c3)C(=O)C2(C)C)ccc1OCCN1CCN(CC(=O)Nc2cc(Cl)cc(NC3CCC(=O)NC3=O)c2)C2(CC2)C1` (stereo not shown) [Example 102, N-(3-chloro-5-(2,6-dioxopiperidin-3-ylamino)phenyl)-2-(7-(2-(4-(3-(6-cyano-5-(trifluoromethyl)pyridin-3-yl)-5,5-dimethyl-4-oxo-2-thioxoimidazolidin-1-yl)-2-ethylphenoxy)ethyl)-4,7-diazaspiro[2.5]octan-4-yl)acetamide], the “Y (AR degradation efficiency, % of DMSO control)” value was “* (0<Y<=25%)” and the DC50 is under 100 nM.

Take `CCc1cc(N2C(=S)N(c3ccc(C#N)c(C(F)(F)F)c3)C(=O)C23CCC3)ccc1OCCN1CCN(CC(=O)Nc2cc(Cl)cc(NC3CCC(=O)NC3=O)c2)[C@H](C)C1` (stereo partly drawn) [Example 103, N-(3-chloro-5-(2,6-dioxopiperidin-3-ylamino)phenyl)-2-((R)-4-(2-(4-(7-(4-cyano-3-(trifluoromethyl)phenyl)-8-oxo-6-thioxo-5,7-diazaspiro[3.4]octan-5-yl)-2-ethylphenoxy)ethyl)-2-methylpiperazin-1-yl)acetamide]: the “Y (AR degradation efficiency, % of DMSO control)” value was “* (0<Y<=25%)” and the half-maximal degradation concentration (DC50) is under 100 nM.

Turning to `CCc1cc(N2C(=S)N(c3ccc(C#N)c(C(F)(F)F)c3)C(=O)C23CCC3)ccc1OCCN1CCN(CC(=O)Nc2cc(F)cc(NC3CCC(=O)NC3=O)c2)[C@H](C)C1` (stereo partly drawn) [Example 104, 2-((R)-4-(2-(4-(7-(4-cyano-3-(trifluoromethyl)phenyl)-8-oxo-6-thioxo-5,7-diazaspiro[3.4]octan-5-yl)-2-ethylphenoxy)ethyl)-2-methylpiperazin-1-yl)-N-(3-(2,6-dioxopiperidin-3-ylamino)-5-fluorophenyl)acetamide], the “Y (AR degradation efficiency, % of DMSO control)” value is listed as “* (0<Y<=25%)” and the DC50 was under 100 nM.
